Key:
[1] = system: non-pluripotent cell types (BJ-fibroblasts, HeLa, HepG2 and Kelly cells); test: Methylene blue viability of non-pluripotent cells in embryonic stem cell medium; format: cell-based, human; details: 20 μM, 72 hours
Experimental: (§1) For the high-throughput screens, relative cell number was determined using a CellTiter-Glo® Luminescent Cell Viability Assay as described hereinabove. Otherwise, relative cell numbers were determined by fixating the cells with 0.5% glutardialdehyde and staining with methylene blue dissolved in 0.1 M boric acid (pH 8.5). Color extraction was performed using 0.1 M hydrochloric acid, and the staining (which is proportional to cell number) was quantified by measuring absorbance at a wavelength of 650 nm.
In order to ascertain that the selectivity of PluriSin cytotoxicity is cell type-dependent rather than cell medium-dependent, four non-pluripotent cell types (BJ-fibroblasts, HeLa, HepG2 and Kelly cells) were cultured in human embryonic stem cell medium and exposed to PluriSIn #1 for 72 hours. Cell viability was then determined by a methylene blue assay, as described hereinabove.

[2] = system: OCT4-expressing CSES2-SO2/3 cells; test: Fluorescence microscopy imaging of OCT4 in mixed cell populations; format: cell-based, human; details: 48 hours, mixed cell population
Experimental: High content imaging of CSES2-SO2/3 fluorescent cells (mCherry+ or EGFP+) was performed in black clear-bottom 384-well assay plates (Falcon BD), using the Opera high-content screen imaging platform (PerkinElmer). Otherwise, light and fluorescence imaging of all cells was performed in 24-well, 6-well or 10 cm CELLSTAR® plates (Greiner Bio-One), using an Olympus CellR imaging station. Light imaging of developing mouse embryos was performed in 35 mm culture dishes (Falcon BD), using an Olympus IX70 microscope.
Mixed cell populations were cultured in 6-well plates and exposed to PluriSIn #1 for 48 hours. The cells were then analyzed by FACS analysis, using staining for the pluripotent marker TRA-1-60, and by fluorescence microscopy imaging of OCT4, as described in the Materials and Methods section.

[3] = system: transformed BJ fibroblasts; test: Methylene blue viability, transformed BJ fibroblasts; format: cell-based, human; details: up to 100 μM, 72 hours, 2% fetal bovine serum
Experimental: as §1
In one experiment, immortalized BJ fibroblasts served as differentiated cells and were compared with BJ fibroblasts induced to undergo cellular transformation, which served as their undifferentiated cancerous counterparts. […]
(§2) The differentiated and undifferentiated cells were exposed to PluriSIn #1 at concentrations of up to 100 μM for 72 hours under low (2%) fetal bovine serum conditions. Their viability was then measured using a methylene blue viability assay, as described hereinabove.

[4] = system: differentiated SLGCs; test: Methylene blue viability, differentiated SLGCs; format: cell-based; details: up to 100 μM, 72 hours, 2% fetal bovine serum
Experimental: as §1
In a second experiment, undifferentiated stem-like glioma cells (SLGCs) were compared with SLGCs differentiated by monolayer adhesion and exposure to 1 μM retinoic acid for one week, in accordance with procedures described by Campos et al. [Clinical Cancer Research 16:2715-2728 (2010)]. Differentiation of SLGCs is associated with a reduction in tumorigenicity [Campos et al., Clinical Cancer Research 16:2715-2728 (2010)].
as §2

[5] = target: T1, SCD1 (Homo sapiens, UniProt O00767); test: SCD1 activity measurement ([1-14C] stearic acid pulse-chase labeling); format: cell-based; design: PluriSIn #1 decreased SCD1 activity by approximately 65% decrease in ES cells; endogenous in cells; host or cells: human embryonic stem cells (H9, printed '1-19'); details: 20 μM, 12 hours
T1 sequence (O00767 1-359): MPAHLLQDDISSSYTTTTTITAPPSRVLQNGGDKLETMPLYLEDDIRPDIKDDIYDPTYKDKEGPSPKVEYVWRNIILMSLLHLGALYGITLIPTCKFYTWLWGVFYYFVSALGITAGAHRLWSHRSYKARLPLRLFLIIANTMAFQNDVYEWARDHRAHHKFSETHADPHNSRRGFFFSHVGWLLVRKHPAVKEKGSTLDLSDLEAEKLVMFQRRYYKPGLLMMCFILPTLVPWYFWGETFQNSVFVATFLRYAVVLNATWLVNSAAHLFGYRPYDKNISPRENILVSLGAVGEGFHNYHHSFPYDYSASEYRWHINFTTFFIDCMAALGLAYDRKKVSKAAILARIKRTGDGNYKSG
Experimental: Cells were plated in 6-well plates at a density of 50,000 to 100,000 cells per well. 24 hours later, 20 μM of PluriSIn #1 (isonicotinic acid N′-phenylhydrazide) or 0.2% DMSO (control) were added to the cells. After 12 hours of incubation at 37° C., under 5% CO2, the old medium was removed, cells were washed with PBS, and new medium containing 2.3 μM of 0.75 μCi of [1-^14C] stearic acid was added. The cells were then incubated for up to 4 hours at 37° C., under 5% CO2.
After the incubation period, the medium was discarded and the cells were washed 3 times with 2 ml of PBS. 2 ml of an n-hexane:isopropanol mixture (3:2 v:v) were added, and the cells were then incubated for 30 minutes at a temperature of 37° C., under 5% CO2. […] The free fatty acids were detected by ultraviolet illumination after spraying the TLC with a 2′,7′-dichlorofluorescein solution. The spots corresponding to stearic and oleic acid were scraped and the radioactivity counted in a Packard Tri-Carb® 1600TR scintillating counter. SCD1 desaturase activity was calculated from the percent conversion of substrate to product and the conversion to picomoles per minute per 10^6 cells. […]
In order to directly examine whether PluriSin #1 inhibits SCD activity, and whether this inhibition is restricted to pluripotent cells, SCD1 activity was measured by a pulse-chase labeling assay, as described in the Materials and Methods section. […]

O=C(NNc1ccccc1)c1ccncc1 [PluriSIn #1, isonicotinic acid N′-phenylhydrazide]
viability of non-pluripotent cells cultured in embryonic stem cell medium [1]: no effect
elimination of OCT4-expressing cells [2]: eliminated almost all OCT4-expressing cells
cytotoxicity towards transformed BJ fibroblasts [3]: highly cytotoxic
effect on differentiated SLGCs [4]: no apparent effect
decrease in SCD1 activity in ES cells [5]: approximately 65%
